Source: patent publication US9504725B2, “Compositions and functional foods for treating and preventing obesity using polygonum cuspidatum butanol fraction and ethyl acetate fraction” (KOREA INSTITUTE OF ORIENTAL MEDICINE, priority 2009, dated 2016)

Legend:
[1] = Obesity-preventive effect in high-fat diet-fed mice (body weight, fats, adipocyte size, serum lipids, fatty liver, insulin); type: in vivo, male C57BL/6 mice
[2] = Inhibitory effect on short term absorption of lipid emulsions in animals (triglyceride after oral lipid emulsion); type: in vivo, male wistar rats
[3] = target: T1, porcine pancreatic lipase (Sus scrofa, UniProt P00591); experiment: Inhibition of porcine pancreatic lipase activity (p-NPB hydrolysis); type: biochemical
T1 construct: purchased Sigma, St. Louis, Mo., USA
T1 sequence (P00591 1-450): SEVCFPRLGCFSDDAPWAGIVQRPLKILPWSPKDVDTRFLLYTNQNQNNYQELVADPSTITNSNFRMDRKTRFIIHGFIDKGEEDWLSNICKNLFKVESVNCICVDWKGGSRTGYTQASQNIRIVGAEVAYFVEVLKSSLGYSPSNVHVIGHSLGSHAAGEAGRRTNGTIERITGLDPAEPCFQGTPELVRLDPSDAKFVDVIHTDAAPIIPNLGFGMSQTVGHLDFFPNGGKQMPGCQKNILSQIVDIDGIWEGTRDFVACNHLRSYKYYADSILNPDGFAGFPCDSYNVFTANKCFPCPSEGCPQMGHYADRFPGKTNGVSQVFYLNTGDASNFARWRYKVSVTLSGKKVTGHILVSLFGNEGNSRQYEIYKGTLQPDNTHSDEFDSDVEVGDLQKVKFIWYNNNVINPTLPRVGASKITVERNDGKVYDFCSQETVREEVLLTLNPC

[4] = high-fat feed mixed with drug (POCU 1%, Xenical 0.1%), 10 weeks

Compound: CCCCCCCCCCC[C@@H](C[C@@H]1OC(=O)[C@H]1CCCCCC)OC(=O)[C@H](CC(C)C)NC=O [Xenical, tetrahydrolipstatin (orlistat)]
- adipocyte size ([1]; H&E stained adipose tissue, high-fat diet group 125 μm): 75 μm
- gonadal fat weight [1, 4]: 0.17 g
- perirenal fat weight [1, 4]: 0.04 g
- subcutaneous fat weight [1, 4]: 0.14 g
- extent of body weight gain ([1]; high-fat feed mixed with drug, 10 weeks, high-fat diet group 10.9 g): 6.1 g
- Concentration of serum triglyceride ([2]; 200 mg/kg oral with lipid emulsion, 0 h (before administration)): 159.6 ± 19.0 mg/dL
- Concentration of serum triglyceride ([2]; 200 mg/kg oral with lipid emulsion, 1 h): 133.7 ± 11.3 mg/dL
- Concentration of serum triglyceride ([2]; 200 mg/kg oral with lipid emulsion, 2 h): 124.4 ± 18.0 mg/dL
- Concentration of serum triglyceride ([2]; 200 mg/kg oral with lipid emulsion, 3 h): 118.1 ± 24.5 mg/dL
- Concentration of serum triglyceride ([2]; 200 mg/kg oral with lipid emulsion, 4 h): 120.9 ± 12.5 mg/dL

Compound: Oc1ccc(/C=C/c2cc(O)cc(O)c2)cc1 [Resveratrol, trans-resveratrol]
- inhibition at 50 µg/mL ([3]; 50 μg/mL, read-out: Inhibitory effect on pancreatic lipase activity (%)): 32.4 ± 3%
- inhibition at 100 µg/mL ([3]; 100 μg/mL, read-out: Inhibitory effect on pancreatic lipase activity (%)): 47.2 ± 1.6%
- IC50 ([3]; porcine pancreatic lipase, p-NPB substrate): 543 µM
- Concentration of serum triglyceride ([2]; 10 mg/kg oral with lipid emulsion, 0 h (before administration)): 147.0 ± 4.2 mg/dL
- Concentration of serum triglyceride ([2]; 10 mg/kg oral with lipid emulsion, 1 h): 212.5 ± 14.0 mg/dL
- Concentration of serum triglyceride ([2]; 10 mg/kg oral with lipid emulsion, 2 h): 219.3 ± 77.3 mg/dL
- Concentration of serum triglyceride ([2]; 10 mg/kg oral with lipid emulsion, 3 h): 195.5 ± 25.9 mg/dL
- Concentration of serum triglyceride ([2]; 10 mg/kg oral with lipid emulsion, 4 h): 193.2 ± 12.1 mg/dL
- Concentration of serum triglyceride ([2]; 50 mg/kg oral with lipid emulsion, 0 h (before administration)): 146.1 ± 1.4 mg/dL
- Concentration of serum triglyceride ([2]; 50 mg/kg oral with lipid emulsion, 1 h): 208.3 ± 31.0 mg/dL
- Concentration of serum triglyceride ([2]; 50 mg/kg oral with lipid emulsion, 2 h): 228.0 ± 58.4 mg/dL
- Concentration of serum triglyceride ([2]; 50 mg/kg oral with lipid emulsion, 3 h): 198.8 ± 62.3 mg/dL
- Concentration of serum triglyceride ([2]; 50 mg/kg oral with lipid emulsion, 4 h): 183.7 ± 50.3 mg/dL
- Concentration of serum triglyceride ([2]; 250 mg/kg oral with lipid emulsion, 2 h): 228.5 ± 8.4 mg/dL
